The values below come from patent US6730677B2, “Benzofurazan compounds which enhance AMPA receptor activity” (The Regents of the University of California, priority 1997, dated 2004).

Each structure is given as a SMILES string.

Data set [1] can be described thus: Eight-arm radial maze task for cognition/memory enhancement. Type of data set: in vivo. The source says:
This task has been described previously (Staubli et al., PNAS 91:777-781 (1994)) and Lynch and Rogers, PCT Pubn. No. WO 94/02475).

The nature of data set [2]: Animal model of depression (Malatynska and Kostowski). The settings on record: for MEDD: Minimum Effective Dose that produces a statistically significant improvement in behavior in an animal model of depression: in vivo; for Potency relative to the reference compound in the animal model of depression: compared with CX516. It is filed as in vivo. The source says:
J. Pharmacol. 40, 357-364 (1984).

The test system of data set [3] is AMPA receptors. As to the kind of experiment: Field EPSP amplitude in field CA1 of rat hippocampal slice (in vitro physiological testing). It is filed as cell-based. The settings on record: estimated by interpolation or extrapolation.
Source text: The field EPSP (excitory post-synaptic potential) recorded in field CA1 after stimulation of CA3 axons is known to be mediated by AMPA receptors, which are present in the synapses (Kessler et al., Brain Res. 560: 337-341 (1991)). Drugs that selectively block the receptor selectively block the field EPSP (Muller et al., Science, supra). […] These effects are mirrored in the field EPSP (see, for example, Staubli et al., Psychobiology, supra; Xiao et al., Hippocampus, supra; Staubli et al., Hippocampus 2:4958 (1992)).
To obtain the data shown in Table I, a bipolar nichrome stimulating electrode was positioned in the dendritic layer (stratum radiatum) of the hippocampal subfield CA1 close to the border of subfield CA3, as described in Example 21. Current pulses (0.1 msec) through the stimulating electrode activate a population of the Schaffer-commissural (SC) fibers, which arise from neurons in the subdivision CA3 and terminate in synapses on the dendrites of CA1 neurons. Activation of these synapses causes them to release the transmitter glutamate. Glutamate binds to the post-synaptic AMPA receptors which then transiently open an associated ion channel and permit a sodium current to enter the post-synaptic cell. This current results in a voltage in the extracellular space (the field EPSP), which is recorded by a high impedance recording electrode positioned in the middle of the stratum radiatum of CA1.
The intensity of the stimulation current was adjusted to produce half-maximal EPSPs (typically about 1.5-2.0 mV). Paired stimulation pulses were given every 40 sec with an interpulse interval of 200 msec, as described further in Example 21.
(§1) Hippocampal slices were maintained in a recording chamber continuously perfused with artificial cerebrospinal fluid (ACSF). During 15-30 minute intervals, the perfusion medium was switched to one containing various concentrations of the test compounds. Responses collected immediately before and at the end of drug perfusion were superimposed in order to calculate the percent increase in EPSP amplitude.
Invention compounds 1-9, as shown in FIG. 3 and Table I below, and reference compound CX516 (1-(quinoxalin-6-ylcarbonyl)piperidine), disclosed in PCT Pubn. No. WO 94/02475, were assayed in the physiological test system described above.
as §1, with “The physiological effects of invention compounds were tested in vitro with” for “Hippocampal”, “slices of rat hippocampus according to the following procedure. Excitatory responses (field EPSPs) were measured in hippocampal slices, which” for “slices”, “During a” for “During”, “interval,” for “intervals,”
To conduct these tests, the hippocampus was removed from anesthetized, 2 month old Sprague-Dawley rats and in vitro slices (400 micrometers thick) were prepared and maintained in an interface chamber at 35° C. using conventional techniques [see, for example, Dunwiddie and Lynch, J. Physiol. 276: 353-367 (1978)]. The chamber was constantly perfused at 0.5 mL/min with ACSF containing (in mM): NaCl 124, KCl 3, KH2PO4 1.25, MgSO42.5, CaCl2 3.4, NaHCO3 26, glucose 10 and L-ascorbate 2. A bipolar nichrome stimulating electrode was positioned in the dendritic layer (stratum radiatum) of the hippocampal subfield CA1 close to the border of subfield CA3.
Current pulses (0.1 msec) through the stimulating electrode activate a population of the Schaffer-commissural (SC) fibers which arise from neurons in the subdivision CA3 and terminate in synapses on the dendrites of CA1 neurons. Activation of these synapses causes them to release the transmitter glutamate. […]

Data set [4] deals with methamphetamine-induced hyperactivity and/or stereotypic activity. As to the kind of experiment: Methamphetamine/rat model of schizophrenia (hyperactivity and/or stereotypic activity). Type of data set: in vivo, Sprague-Dawley rats. The note with it: for MEDS: Minimum Effective Dose that produces a statistically significant improvement in behavior in the animal model of schizophrenia: rats, 2 mg/kg methamphetamine, activity monitored for 90 minutes. The protocol: The dose recorded is that which reduced the hyperactivity and/or the stereotypic activity induced by acute administration of 2 mg/kg methamphetamine in rats, as described in Example 22.
The dose recorded is that which reduced the hyperactivity and/or the stereotypic activity induced by acute administration of 2 mg/kg methamphetamine in Sprague-Dawley rats aged 2-4 months. Activity was monitored for 90 minutes using two rows of multiple, paired infrared diode-detectors such that the lower row detected locomotion and the upper row detected rearing behavior. Data were collected by and stored in a personal computer for later analysis.

`O=C(c1ccc2nccnc2c1)N1CCCCC1` [CX516, 1-(quinoxalin-6-ylcarbonyl)piperidine, reference compound]: the “MEDC: Minimum Effective Dose that produces a statistically significant improvement in behavior in the eight-arm radial maze task” value in data set [1] stood at 15 mg/kg. In addition, the “MEDD: Minimum Effective Dose that produces a statistically significant improvement in behavior in an animal model of depression” value in data set [2] is 5 mg/kg. The “Amp: concentration of compound that causes a 10% increase in the amplitude of the field EPSP in Field CA1 of rat hippocampal slice” value in data set [3] was 50 µM. Also, the “MEDS: Minimum Effective Dose that produces a statistically significant improvement in behavior in the animal model of schizophrenia” value in data set [4] was 10 mg/kg.
On to `O=C(c1ccc2nsnc2c1)N1CCCCC1` [Compound 1, 1-(Benzo-2,1,3-thiadiazole-5-ylcarbonyl)piperidine], for which the “Amp: concentration of compound that causes a 10% increase in the amplitude of the field EPSP in Field CA1 of rat hippocampal slice” value in data set [3] was less than 100 µM.
One may read the melting point as the temperature of the solid-liquid transition. Compound `O=C(c1ccc2nonc2c1)N1CCCCC1` [Compound 2, 1-(Benzofurazan-5-ylcarbonyl)piperidine] came in with a melting point of 88.5 to 90.5 °C. Further, the “MEDC: Minimum Effective Dose that produces a statistically significant improvement in behavior in the eight-arm radial maze task” value in data set [1] is 0.1 mg/kg. Moreover, in data set [2], the “Potency relative to the reference compound in the animal model of depression” value is “approximately 500 fold” and the “MEDD: Minimum Effective Dose that produces a statistically significant improvement in behavior in an animal model of depression” value is 0.01 mg/kg. Besides, the “Amp: concentration of compound that causes a 10% increase in the amplitude of the field EPSP in Field CA1 of rat hippocampal slice” value in data set [3] is 3 µM. In addition, the “Reduction in dose giving an equivalent effect relative to reference compound CX516” value in data set [4] (methamphetamine/rat model) was “hundred-fold”. Further, the “MEDS: Minimum Effective Dose that produces a statistically significant improvement in behavior in the animal model of schizophrenia” value in data set [4] was 0.1 mg/kg.
Consider `O=C(c1ccc2nonc2c1)N1CC=CCC1` [Compound 3, 1-(Benzofurazan-5-ylcarbonyl)-1,2,3,6-tetrahydropyridine], for which, in data set [3], the “Amp: concentration of compound that causes a 10% increase in the amplitude of the field EPSP in Field CA1 of rat hippocampal slice” value is 100 µM.
For `O=C(c1ccc2nonc2c1)N1CCC(F)CC1` [Compound 4, 1-(Benzofurazan-5-ylcarbonyl)-4-fluoropiperidine], the “Amp: concentration of compound that causes a 10% increase in the amplitude of the field EPSP in Field CA1 of rat hippocampal slice” value in data set [3] is 30 µM. Also, the “MEDS: Minimum Effective Dose that produces a statistically significant improvement in behavior in the animal model of schizophrenia” value in data set [4] is listed as 1 mg/kg.
Taken in the same sequence, the figures for `O=C(c1ccc2nonc2c1)N1CCC(F)(F)CC1` [Compound 5, 1-(Benzofurazan-5-ylcarbonyl)-4,4-difluoropiperidine] were 50 µM and 1 mg/kg.
`O=C(c1ccc2nonc2c1)N1CC=C(F)CC1` [Compound 6, 1-(Benzofurazan-5-ylcarbonyl)-1,2,3,6-tetrahydro-4-fluoropyridine]: in data set [3], the “Amp: concentration of compound that causes a 10% increase in the amplitude of the field EPSP in Field CA1 of rat hippocampal slice” value is 30 µM.
Take `O=C(c1ccc2nonc2c1)N1CCOCC1` [Compound 7, 4-(Benzofurazan-5-ylcarbonyl)morpholine]: the “MEDC: Minimum Effective Dose that produces a statistically significant improvement in behavior in the eight-arm radial maze task” value in data set [1] is given as 0.1 mg/kg. Further, the “Amp: concentration of compound that causes a 10% increase in the amplitude of the field EPSP in Field CA1 of rat hippocampal slice” value in data set [3] was 3 µM.
As to `N#CC1CCN(C(=O)c2ccc3nonc3c2)CC1` [Compound 8, 1-(Benzofurazan-5-ylcarbonyl)-4-cyanopiperidine], the melting point lay in the range of 104 to 107 °C. For the same compound, the “MEDC: Minimum Effective Dose that produces a statistically significant improvement in behavior in the eight-arm radial maze task” value in data set [1] was 0.1 mg/kg. Further, the “Amp: concentration of compound that causes a 10% increase in the amplitude of the field EPSP in Field CA1 of rat hippocampal slice” value in data set [3] was 1 µM.
`O=C(c1ccc2nonc2c1)N1CCC(O)CC1` [Compound 9, 1-(Benzofurazan-5-ylcarbonyl)-4-hydroxypiperidine]: the melting point is 132 to 136 °C. For the same compound, the “MEDC: Minimum Effective Dose that produces a statistically significant improvement in behavior in the eight-arm radial maze task” value in data set [1] is listed as 0.1 mg/kg. For the same compound, in data set [2], the “Potency relative to the reference compound in the animal model of depression” value is reported as “approximately 500 fold” and the “MEDD: Minimum Effective Dose that produces a statistically significant improvement in behavior in an animal model of depression” value was 0.01 mg/kg. Besides, the “Amp: concentration of compound that causes a 10% increase in the amplitude of the field EPSP in Field CA1 of rat hippocampal slice” value in data set [3] is 20 µM.
Compound `O=C(c1ccc2nonc2c1)[SH]1CCNCC1` [Compound 10, 1-(Benzofurazan-5-ylcarbonyl)thiomorpholine] returned a melting point of 144 to 146 °C.
Compound `O=C(c1ccc2nonc2c1)N1CCCC1` [Compound 11, 1-(Benzofurazan-5-ylcarbonyl)pyrrolidine] yielded a melting point of 97.8 to 99.3 °C.
`O=C(c1ccc2nonc2c1)N1CC=CC1` [Compound 12, 1-(Benzofurazan-5-ylcarbonyl)-3-pyrroline] had a melting point of 117 to 118 °C.
`CC1CCN(C(=O)c2ccc3nonc3c2)CC1` [Compound 13, 1-(Benzofurazan-5-ylcarbonyl)-4-methylpiperidine] registered a melting point of 86 to 87 °C.
The same measure, in the same setting: as for `O=C(c1ccc2nonc2c1)N1CCCCCC1` [Compound 14, 1-(Benzofurazan-5-ylcarbonyl)hexamethyleneimine], the figure is 86 to 87 °C.
